Source: US20210338558A1, “USE OF COLLAGEN BINDING DOMAINS TO DELIVER PRODUCTS TO SKIN” (Fabius Biotechnology, priority 2018, published 2021)
Where no end group is shown, it is not given here.

Legend:
collagen = conditions: by binding competition, on a molar basis, relative to intact VWF; cited from earlier work
native collagen = assay: binding of growth factors carrying the collagen binding decapeptide to collagen
Description: (§1) Studies with targeted peptides used the decapeptide sequence: Trp-Arg-Glu-Pro-Ser-Phe-Met-Ala-Leu-Ser (WREPSFMALS) (SEQ ID NO: 1). It was linked to either TGF-β or BMP-3 at the C-terminus of the corresponding growth factors.
Polypeptide growth factors, of the TGF-β family, and others, were constructed to contain, at the C-terminal end, a decapeptide with high affinity for collagen (Andrades, Nimni et al. 1996; Tuan, Cheung et al. 1996; Andrades, Han et al. 1999; Hall, Han et al. 2001; Han, Perelman et al. 2002; Romijn, Westein et al. 2003). This was intended to provide concentration of the growth factors where needed for maximum efficacy. In compositions and methods according to the present invention, this effect can be used for delivery of the skin care agent or cosmeceutical to the skin.
This is compared to the behavior of TGF-β without the collagen binding domain, which has poor affinity for collagen.

[1] = biological activity of the covalently linked growth factors; conditions: growth factor linked at its C-terminus to decapeptide WREPSFMALS
Description: as §1

WREPSFCALS [SEQ ID NO: 2]
binds more efficiently to collagen than the intact VWF (collagen): 20 times

TGF-β without the collagen binding domain: TGF-β lacking the collagen binding domain, comparator in FIG. 4 [reference compound]
affinity for collagen (native collagen; FIG. 4): poor affinity

WREPSFMALS [SEQ ID NO: 1]
binds more efficiently to collagen than the intact VWF (collagen): 20 times

TGF-β with a collagen binding domain: TGF-β linked at the C-terminus to the decapeptide WREPSFMALS; genetically engineered fusion protein (FIG. 3)
biological activities retained after linkage [1]: retained significant biological activities | dissociation of binding to collagen (native collagen; FIG. 4, urea): requires a high concentration of urea for dissociation | binding affinity towards native collagen (native collagen; growth factor linked at its C-terminus to decapeptide WREPSFMALS): strong binding affinity
